From publication PMC8508710, “Biochemical Characterization of 13-Lipoxygenases of Arabidopsis thaliana” (International Journal of Molecular Sciences, 2021)

Tests used:
LOX4 = target: T1, LOX4 (Arabidopsis thaliana, UniProt Q9FNX8); assay: Free thiols of LOX4 (Ellman, DTNB); design: made in house; host or cells: E. coli Nico21(DE3), pET15b; conditions: LOX4 4.2 µM incubated 20 min with 12-OPDA; control 7.6 ± 0.1
T1 sequence (Q9FNX8 71-926): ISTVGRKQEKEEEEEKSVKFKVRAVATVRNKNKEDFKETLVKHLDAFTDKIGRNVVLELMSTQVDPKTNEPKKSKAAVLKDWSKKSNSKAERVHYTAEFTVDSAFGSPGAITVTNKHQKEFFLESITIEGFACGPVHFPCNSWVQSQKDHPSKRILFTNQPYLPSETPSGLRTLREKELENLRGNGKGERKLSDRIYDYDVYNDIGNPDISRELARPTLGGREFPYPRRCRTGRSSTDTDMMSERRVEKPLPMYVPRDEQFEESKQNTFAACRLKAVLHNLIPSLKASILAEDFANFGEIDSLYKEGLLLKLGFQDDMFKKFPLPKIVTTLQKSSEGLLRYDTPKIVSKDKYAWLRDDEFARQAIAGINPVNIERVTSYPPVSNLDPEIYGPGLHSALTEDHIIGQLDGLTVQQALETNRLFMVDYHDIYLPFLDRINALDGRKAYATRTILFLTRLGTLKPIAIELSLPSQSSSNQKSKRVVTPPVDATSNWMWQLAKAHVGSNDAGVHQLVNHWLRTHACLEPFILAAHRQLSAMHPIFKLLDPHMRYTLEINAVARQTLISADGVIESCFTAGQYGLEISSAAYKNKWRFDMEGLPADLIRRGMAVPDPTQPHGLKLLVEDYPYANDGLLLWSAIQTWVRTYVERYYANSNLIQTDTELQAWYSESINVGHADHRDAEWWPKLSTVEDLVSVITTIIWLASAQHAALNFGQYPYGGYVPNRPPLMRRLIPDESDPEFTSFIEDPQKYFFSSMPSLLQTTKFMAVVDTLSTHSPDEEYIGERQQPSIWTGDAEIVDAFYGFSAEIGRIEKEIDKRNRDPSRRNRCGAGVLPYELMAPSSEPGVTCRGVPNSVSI
Protocol: The iron content was analyzed as described. Free protein thiols were determined as described in [80] with slight variations. Briefly, 150 µL LOX4 (4.2 µM) was mixed with 1.5 µL 30 mM 12-OPDA (in EtOH) or EtOH (solvent control). After 20 min of incubation at 25 °C, samples were mixed with 10 µL dithionitrobencene (DTNB, 2 mM in 40 mM K-Pi, pH 8.0) and incubated for 30 min in the dark. Samples were measured at 412 nm, ε412nm = 13,600 […] (KC4 microplate reader, Biotec, 25 °C) for determination of the thiol/protein ratio with background correction (150 µL 40 mM K-Pi, pH 8.0, 10 µL DTNB 2 mM, 1.5 µL ligand stock or EtOH).

LOX2 = target: T2, LOX2 (Arabidopsis thaliana, UniProt P38418); assay: Intrinsic fluorescence of LOX2; format: binding; design: made in house; host or cells: E. coli Nico21(DE3), pET15b; conditions: as Figure 5B; for Emission maximum: control 336.5±0.6, in nm (unit assumed); for Relative fluorescence intensity at emission maximum: λExc = 280 nm, control 125.5±2.0
T2 sequence (P38418 71-896): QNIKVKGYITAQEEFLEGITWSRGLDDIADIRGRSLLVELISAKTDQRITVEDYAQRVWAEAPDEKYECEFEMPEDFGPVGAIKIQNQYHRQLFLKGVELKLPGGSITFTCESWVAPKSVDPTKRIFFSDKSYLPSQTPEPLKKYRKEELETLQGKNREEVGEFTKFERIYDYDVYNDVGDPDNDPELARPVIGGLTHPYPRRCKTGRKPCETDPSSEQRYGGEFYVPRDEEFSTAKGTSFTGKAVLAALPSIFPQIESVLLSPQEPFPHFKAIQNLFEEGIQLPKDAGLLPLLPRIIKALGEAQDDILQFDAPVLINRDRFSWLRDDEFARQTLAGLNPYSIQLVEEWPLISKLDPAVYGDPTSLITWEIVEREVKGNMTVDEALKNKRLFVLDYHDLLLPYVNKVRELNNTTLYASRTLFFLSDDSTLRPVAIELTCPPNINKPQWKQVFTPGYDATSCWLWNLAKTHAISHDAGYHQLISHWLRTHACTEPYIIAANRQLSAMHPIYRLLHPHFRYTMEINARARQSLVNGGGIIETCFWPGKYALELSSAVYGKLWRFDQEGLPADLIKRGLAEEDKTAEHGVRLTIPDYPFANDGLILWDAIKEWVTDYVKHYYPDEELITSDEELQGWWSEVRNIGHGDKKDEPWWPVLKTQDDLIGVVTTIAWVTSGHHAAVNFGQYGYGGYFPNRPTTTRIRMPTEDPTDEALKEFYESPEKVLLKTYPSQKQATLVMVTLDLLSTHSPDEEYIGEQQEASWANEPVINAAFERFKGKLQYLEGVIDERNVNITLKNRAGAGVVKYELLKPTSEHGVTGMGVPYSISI
Protocol: Figure 5 Analysis of the interaction of 12-OPDA and MJ with LOX4. […] LOX4 (0.22 µg/µL) was incubated with compounds at indicated concentrations for 10 min at 30 °C, and residual LOX activity was measured spectrophotometrically by the injection of 3 µL incubation mixture into 123 µL LeA (4.8 µM in 50 mM Tris-HCl, pH 7.2). […] (B) Intrinsic fluorescence of LOX4 incubated with 12-OPDA, MJ and solvent (control). Here, 120 µL LOX4 (0.2 µg/µL) was mixed with 15 µL chemical (1.4 mM in 50 mM K-Pi, pH 8.0) or solvent (control) and analyzed for intrinsic fluorescence emission after excitation at λExc = 280 nm. Mean graphs are shown (n = 4).
Int. J. Mol. Sci. 2021, 22, x FOR PEER REVIEW 11 of 17
Figure S7. Interaction and activity studies of LOX2, LOX3 and LOX6. (A) LOX2, LOX3 and LOX6 activities in presence of increasing amounts of MJ and 12-OPDA. Analysis was performed as described for IC50 determination of LOX4 (see Figure 5A). 100% activity […]
(B) Intrinsic fluorescence of LOX2 and LOX3 incubated with 12-OPDA, MJ and solvent control. Analysis was performed as in Figure 5B. […]

SMILES | Free thiols (Cys residues) of LOX4 after incubation (LOX4) [mol·mol^−1] | Emission maximum (LOX2) | Relative fluorescence intensity at emission maximum (LOX2)
CCC=CCC1C(=O)C=CC1CCCCCCCC(=O)O (stereo not drawn) [12-OPDA, cis-(+)-12-oxophytodienoic acid] | 5.9 ± 0.1 | 337.2±0.3 | 117.5±2.0
CC/C=C\CC1C(=O)CCC1CC(=O)OC (centres unmarked) [MJ, methyl jasmonate] |  | 337.3±0.6 | 119.7±2.7
